Data taken from patent publication US9845330B2, “6-nitro-2,3-dihydroimidazo[2,1-b]oxazoles and a process for the preparation thereof” (priority 2013, dated 2017).
Converted amounts (≈) assume the structure as drawn. Read-outs that look alike come from different tables or passages of the source.

Assays:
Format in all cases: cell-based
[1] = system: macrophage J774 cells line; experiment: Cytotoxicity assay (MTT) in macrophage J774 cells; conditions: J774 cells, 24 hrs, MTT
Method in brief: (§1)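 J774 cells seeded at 3×10^4 cells/cm^2 in RPMI with FCS reduced to 5%, then exposed to compounds at 40 μg/ml for 24 hrs. MTT reduction read at 450 nm; percentage cytotoxicity calculated relative to untreated cells.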

[2] = Cytotoxicity assay (MTT) in macrophage J774 cells; conditions: mouse, J774 macrophage cells; also called safety index
Method in brief: as §1

[3] = system: M. tuberculosis H37Rv (ATCC 27294); experiment: MIC by broth dilution method, M. tuberculosis H37Rv; conditions: Mycobacterium tuberculosis
[4] = 504 h, broth dilution, 3 weeks, read-out: MIC M. tb H37Rv
[5] = read-out: MIC value, text summary: sensitive H37Rv as well as MDR and XDR strains of M. tuberculosis

SMILES | Cytotoxicity [1] [µg/mL] | selectivity ratio at 24 h, 40 μg/ml [2] | MIC [3, 4] [µg/mL] | MIC [3, 5] [µg/mL]
CCc1ccc(-c2cc(-c3ccc(OC[C@@]4(C)Cn5cc([N+](=O)[O-])nc5O4)cc3)no2)cc1 [IC2, (R)-2-{4-[5-(4-ethylphenyl)isoxazol-3-yl]phenoxymethyl}-2,3-dihydro-2-methyl-6-nitroimidazo[2,1-b]oxazole] | >40 | > 10 | 2 (≈ 4.48 µM) | 
C[C@]1(COc2ccc(-c3cc(-c4ccc(F)cc4F)on3)cc2)Cn2cc([N+](=O)[O-])nc2O1 [IC3, (R)-2-{4-[5-(2,4-difluorophenyl)isoxazol-3-yl]phenoxymethyl}-2,3-dihydro-2-methyl-6-nitroimidazo[2,1-b]oxazole] | >40 | > 10 | 0.25 (≈ 0.55 µM) | < 1
C[C@]1(COc2ccc(-c3cc(-c4ccccc4F)on3)cc2)Cn2cc([N+](=O)[O-])nc2O1 [IC4, (R)-2-{4-[5-(2-fluorophenyl)isoxazol-3-yl]phenoxymethyl}-2,3-dihydro-2-methyl-6-nitroimidazo[2,1-b]oxazole] | >40 | > 10 | 2 (≈ 4.58 µM) | 
C[C@]1(COc2ccc(-c3cc(-c4ccc(C(F)(F)F)cc4)on3)cc2)Cn2cc([N+](=O)[O-])nc2O1 [IC5, (R)-2-{4-[5-(4-trifluoromethylphenyl)isoxazol-3-yl]phenoxymethyl}-2,3-dihydro-2-methyl-6-nitroimidazo[2,1-b]oxazole] | >40 | > 10 | 1 (≈ 2.06 µM) | 
Cc1ccc(-c2cc(-c3ccc(OC[C@@]4(C)Cn5cc([N+](=O)[O-])nc5O4)cc3)no2)cc1 [IC6, (R)-2-{4-[5-(4-methylphenyl)isoxazol-3-yl]phenoxymethyl}-2,3-dihydro-2-methyl-6-nitroimidazo[2,1-b]oxazole] | >40 | > 10 | 1 (≈ 2.31 µM) | 
COc1ccc(-c2cc(-c3ccc(OC[C@@]4(C)Cn5cc([N+](=O)[O-])nc5O4)cc3)no2)cc1 [IC7, (R)-2-{4-[5-(4-methoxyphenyl)isoxazol-3-yl]phenoxymethyl}-2,3-dihydro-2-methyl-6-nitroimidazo[2,1-b]oxazole] | >40 | > 10 | 0.5 (≈ 1.11 µM) | < 1
C[C@]1(COc2ccc(-c3cc(-c4ccc(OC(F)(F)F)cc4)on3)cc2)Cn2cc([N+](=O)[O-])nc2O1 [IC10, (R)-2-{4-[5-(4-trifluoromethoxyphenyl)isoxazol-3-yl]phenoxymethyl}-2,3-dihydro-2-methyl-6-nitroimidazo[2,1-b]oxazole] | >40 | > 10 | 0.5 (≈ 0.995 µM) | < 1
CCCCCc1cc(-c2ccc(OC[C@@]3(C)Cn4cc([N+](=O)[O-])nc4O3)cc2)no1 [IC11, (R)-2-{4-[5-pentylisoxazol-3-yl]phenoxymethyl}-2,3-dihydro-2-methyl-6-nitroimidazo[2,1-b]oxazole] | >40 | > 10 | 32 (≈ 77.6 µM) | 
CCCCCCCc1cc(-c2ccc(OC[C@@]3(C)Cn4cc([N+](=O)[O-])nc4O3)cc2)no1 [IC12, (R)-2-{4-[5-heptylisoxazol-3-yl]phenoxymethyl}-2,3-dihydro-2-methyl-6-nitroimidazo[2,1-b]oxazole] | >40 | > 10 | 2 (≈ 4.54 µM) | 
C[C@]1(COc2ccc(-c3cc(COc4ccc(C(F)(F)F)cc4)on3)cc2)Cn2cc([N+](=O)[O-])nc2O1 [IC15, (R)-2-{4-[5-(4-trifluoromethylphenoxymethyl)isoxazol-3-yl]phenoxymethyl}-2,3-dihydro-2-methyl-6-nitroimidazo[2,1-b]oxazole] | >40 | > 10 | 0.25 (≈ 0.484 µM) | < 1
C[C@]1(COc2ccc(-c3cc(COc4ccccc4F)on3)cc2)Cn2cc([N+](=O)[O-])nc2O1 [IC16, (R)-2-{4-[5-(2-fluorophenoxymethyl)isoxazol-3-yl]phenoxymethyl}-2,3-dihydro-2-methyl-6-nitroimidazo[2,1-b]oxazole] | >40 | > 10 | 0.5 (≈ 1.07 µM) | < 1
Cc1ccc(OCc2cc(-c3ccc(OC[C@@]4(C)Cn5cc([N+](=O)[O-])nc5O4)cc3)no2)cc1 [IC17, (R)-2-{4-[5-(4-methylphenoxymethyl)isoxazol-3-yl]phenoxymethyl}-2,3-dihydro-2-methyl-6-nitroimidazo[2,1-b]oxazole] | >40 | > 10 | 0.5 (≈ 1.08 µM) | < 1
CC(C)c1ccc(OCc2cc(-c3ccc(OC[C@@]4(C)Cn5cc([N+](=O)[O-])nc5O4)cc3)no2)cc1 [IC18, (R)-2-{4-[5-(4-isopropylphenoxymethyl)isoxazol-3-yl]phenoxymethyl}-2,3-dihydro-2-methyl-6-nitroimidazo[2,1-b]oxazole] | >40 | > 10 | 0.25 (≈ 0.51 µM) | < 1
C[C@]1(COc2ccc(-c3cc(COc4ccc(F)cc4F)on3)cc2)Cn2cc([N+](=O)[O-])nc2O1 [IC22, (R)-2-{4-[5-(2,4-difluorophenoxymethyl)isoxazol-3-yl]phenoxymethyl}-2,3-dihydro-2-methyl-6-nitroimidazo[2,1-b]oxazole] | >40 | > 10 | 0.12 (≈ 0.248 µM) | < 1
C[C@]1(COc2ccc(NC(=O)Nc3ccc(F)cc3)cc2)Cn2cc([N+](=O)[O-])nc2O1 [IIA1, (R)-1-(4-fluorophenyl)-3-{4-(2-methyl-6-nitro-2,3-dihydroimidazo[2,1-b]oxazol-2-yl)methoxyphenyl}urea] | >40 | > 10 | 2 (≈ 4.68 µM) | 
CCc1ccc(NC(=O)Nc2ccc(OC[C@@]3(C)Cn4cc([N+](=O)[O-])nc4O3)cc2)cc1 [IIA2, (R)-1-(4-ethylphenyl)-3-{4-(2-methyl-6-nitro-2,3-dihydroimidazo[2,1-b]oxazol-2-yl)methoxyphenyl}urea] | >40 | > 10 | 0.5 (≈ 1.14 µM) | < 1
Cc1ccc(NC(=O)Nc2ccc(OC[C@@]3(C)Cn4cc([N+](=O)[O-])nc4O3)cc2)cc1 [IIA4, (R)-1-(4-methylphenyl)-3-{4-(2-methyl-6-nitro-2,3-dihydroimidazo[2,1-b]oxazol-2-yl)methoxyphenyl}urea] | >40 | > 10 | 0.06 (≈ 0.142 µM) | < 1
COc1ccc(NC(=O)Nc2ccc(OC[C@@]3(C)Cn4cc([N+](=O)[O-])nc4O3)cc2)cc1 [IIA5, (R)-1-(4-methoxyphenyl)-3-{4-(2-methyl-6-nitro-2,3-dihydroimidazo[2,1-b]oxazol-2-yl)methoxyphenyl}urea] | >40 | > 10 | 1 (≈ 2.28 µM) | 
C[C@]1(COc2ccc(NC(=O)Nc3ccc(OC(F)(F)F)cc3)cc2)Cn2cc([N+](=O)[O-])nc2O1 [IIA6, (R)-1-(4-trifluoromethoxyphenyl)-3-{4-(2-methyl-6-nitro-2,3-dihydroimidazo[2,1-b]oxazol-2-yl)methoxyphenyl}urea] | >40 | > 10 | 0.5 (≈ 1.01 µM) | < 1
C[C@]1(COc2ccc(S(=O)(=O)N3CCN(c4cccc(Cl)c4)CC3)cc2)Cn2cc([N+](=O)[O-])nc2O1 [IIC3, (R)-2-{4-[4-(3-chlorophenyl)piperazin-1-yl]sulfonylphenoxymethyl}-2,3-dihydro-2-methyl-6-nitroimidazo[2,1-b]oxazole] | >40 | > 10 | 8 (≈ 15 µM) | 
C[C@]1(COc2ccc(S(=O)(=O)N3CCN(c4ccc(OC(F)(F)F)cc4)CC3)cc2)Cn2cc([N+](=O)[O-])nc2O1 [IIC4, (R)-2-{4-[4-(4-trifluoromethoxyphenyl)piperazin-1-yl]sulfonylphenoxymethyl}-2,3-dihydro-2-methyl-6-nitroimidazo[2,1-b]oxazole] | >40 | > 10 | 2 (≈ 3.43 µM) | 
CCOC(=O)N1CCN(S(=O)(=O)c2ccc(OC[C@@]3(C)Cn4cc([N+](=O)[O-])nc4O3)cc2)CC1 [IIC5, (R)-ethyl-{4-[4-(2-methyl-6-nitro-2,3-dihydroimidazo[2,1-b]oxazol-2yl)methoxyphenyl]sulfonyl}piperazine-1-carboxylate] | >40 | > 10 | 2 (≈ 4.04 µM) | 
C[C@]1(COc2ccc(S(=O)(=O)N3CCN(C(=O)c4ccccc4)CC3)cc2)Cn2cc([N+](=O)[O-])nc2O1 [IIC6, (R)-{4-[4-(2-methyl-6-nitro-2,3-dihydroimidazo[2,1-b]oxazol-2yl)methoxyphenyl]sulfonyl}piperazine-1-yl(phenyl)methanone] | >40 | > 10 | 2 (≈ 3.79 µM) | 
C[C@]1(COc2ccc(S(=O)(=O)N3CCCCC3)cc2)Cn2cc([N+](=O)[O-])nc2O1 [IIC7, (R)-2-{4-(piperidin-1-ylsulfonyl)phenoxymethyl}-2,3-dihydro-2-methyl-6-nitroimidazo[2,1-b]oxazole] | >40 | > 10 | 1 (≈ 2.37 µM) | 
C[C@]1(COc2ccc(S(=O)(=O)N3CCC(c4ccccc4)CC3)cc2)Cn2cc([N+](=O)[O-])nc2O1 [IIC8, (R)-2-{4-[(4-phenylpiperidin-1-yl)sulfonyl]phenoxymethyl}-2,3-dihydro-2-methyl-6-nitroimidazo[2,1-b]oxazole] | >40 | > 10 | 0.5 (≈ 1 µM) | 0.5 (≈ 1 µM)
